The values that follow are results of earlier work, collected in PMC9037210, “Novel 3-(6-methylpyridin-2-yl)coumarin-based chalcones as selective inhibitors of cancer-related carbonic anhydrases IX and XII endowed with anti-proliferative activity” (Journal of Enzyme Inhibition and Medicinal Chemistry, 2022).

In one data set the target is T1, hCA II (Homo sapiens, UniProt P00918).
T1 construct: made in house
Conditions: Figure 1; read-out: hCA II inhibition; cited from earlier work.

The next data set addresses T2, hCA I (Homo sapiens, UniProt P00915).
T2 construct: made in house
The settings on record: Figure 1; read-out: hCA I inhibition; cited from earlier work.

A further data set has as its target T3, hCA IX (Homo sapiens, UniProt Q16790).
T3 construct: made in house
Conditions: Figure 1; read-out: hCA IX inhibition; cited from earlier work.

T2 sequence (P00915 whole entry): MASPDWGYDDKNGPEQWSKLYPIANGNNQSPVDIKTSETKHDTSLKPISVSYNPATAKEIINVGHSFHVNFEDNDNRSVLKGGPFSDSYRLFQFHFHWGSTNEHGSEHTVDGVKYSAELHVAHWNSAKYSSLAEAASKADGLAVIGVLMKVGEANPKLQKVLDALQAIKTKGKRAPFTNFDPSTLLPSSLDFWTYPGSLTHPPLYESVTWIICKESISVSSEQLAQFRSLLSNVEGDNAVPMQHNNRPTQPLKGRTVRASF

As for `O=c1ccc2cc(O)ccc2o1` [III], the Ki on hCA II and at hCA I was greater than 100 µM in each case.
For the compound `O=C(Nc1ccc(Cl)cc1)c1cc2ccc(O)cc2oc1=O` [IV], the Ki on hCA II and at hCA I was greater than 100 µM in each case.
For `O=Cc1ccccc1OCc1cn(CCCOc2ccc3ccc(=O)oc3c2)nn1` [V], the results for the Ki at hCA IX and at hCA I were 0.13 µM and greater than 10 µM, respectively.
